Data on 13 compounds can be found in PubChem BioAssay (NCI).

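In this assay, cells in 96-well plates receive the compound at five concentrations for 48 hours. Endpoints are linearly interpolated between the surrounding concentrations. Here, GI50 denotes the concentration required for 50% inhibition of growth. TGI: concentration producing complete growth inhibition.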 Some results are limits rather than exact numbers.

One assay concerns ACHN renal. Briefly: NCI tumour cell line growth inhibition, 48 h.
On to `CCCC(C)c1cc(Cc2cc(Cl)cc(Cl)c2O)c(O)c(Cc2cc(Cl)cc(Cl)c2O)c1` (stereo not given), for which the GI50 is 1.99 µM and the TGI stood at 10.9 µM.
The matching figures for `COc1ccc(/C=C2\CCCC3=C2N=C2SC(C)=NN2C3c2ccc(OC)c(OC)c2)cc1OC` (stereo not given): 4.2 µM and 33.3 µM.
For `COc1ccc(-c2nn3c(-c4cc(F)c(Cl)cc4Cl)nnc3s2)cc1` the same measures were 37.8 µM and greater than 100 µM.
For `O=C(NCCO)Nc1ccc(-c2nc(N3CCOCC3)c3cccn3n2)cc1` the same measures were 0.0614 µM and greater than 100 µM.
Compound `O=C(/C=C/c1ccccc1)c1cc(Br)ccc1O` had a TGI of 28.7 µM.
As for `Cc1ccc(-c2cn3ccnc3c(-c3ccc(Cl)cc3)n2)cc1`, the TGI came out at 22.3 µM.
Regarding `CC1(C)C(=NNC(=O)C[N+](C)(C)C)C(C)(C)C1=NNC(=O)C[N+](C)(C)C`, the TGI was greater than 100 µM.
For the compound `CC(C)c1cc(-c2n[nH]c(=O)n2-c2ccc3c(ccn3C)c2)c(O)cc1O`, the GI50 is less than 0.0209 µM and the TGI was greater than 43.1 µM.
For `COc1ccc2nc(-c3cccs3)cc(C(O)CN3CCSCC3)c2c1` (stereo not given), the TGI amounted to 45.9 µM.
`N#C/C(=C\c1ccc(O)c(O)c1)C(N)=S` had a TGI greater than 100 µM.
On the same count and under the same terms, to `COc1ccc2c(c1)/C(=C\c1c(C)nc3sccn13)C(=O)N2` belongs 69.4 µM; to `CC(=O)OCC1OC(OC2C(CSC3OC(COC(C)=O)C(OC(C)=O)C(OC(C)=O)C3OC(C)=O)OC(OC(C)=O)C(OC(C)=O)C2OC(C)=O)C(OC(C)=O)C(OC(C)=O)C1OC(C)=O` (stereo not given), greater than 100 µM.
Turning to `OC(c1cc(-c2ccccc2)nc2ccc(Cl)cc12)C1CCCCN1` (stereo not given), the GI50 is 1.64 µM and the TGI is 3.21 µM.

The next assay concerns KM12 colon. Briefly: NCI tumour cell line growth inhibition, 48 h.
As for `CCCC(C)c1cc(Cc2cc(Cl)cc(Cl)c2O)c(O)c(Cc2cc(Cl)cc(Cl)c2O)c1` (stereo not given), the GI50 was 2.19 µM and the TGI was determined as 11.4 µM.
The matching figures for `COc1ccc(/C=C2\CCCC3=C2N=C2SC(C)=NN2C3c2ccc(OC)c(OC)c2)cc1OC` (stereo not given): 8.41 µM and greater than 100 µM.
The matching figures for `COc1ccc(-c2nn3c(-c4cc(F)c(Cl)cc4Cl)nnc3s2)cc1`: 26.3 µM and greater than 100 µM.
The matching figures for `O=C(NCCO)Nc1ccc(-c2nc(N3CCOCC3)c3cccn3n2)cc1`: 0.579 µM and greater than 100 µM.
As to `O=C(/C=C/c1ccccc1)c1cc(Br)ccc1O`, the TGI was 25.7 µM.
Turning to `Cc1ccc(-c2cn3ccnc3c(-c3ccc(Cl)cc3)n2)cc1`, the GI50 was 0.15 µM and the TGI is 16.6 µM.
`CC1(C)C(=NNC(=O)C[N+](C)(C)C)C(C)(C)C1=NNC(=O)C[N+](C)(C)C`: the TGI is greater than 100 µM.
With `CC(C)c1cc(-c2n[nH]c(=O)n2-c2ccc3c(ccn3C)c2)c(O)cc1O`, the GI50 is 0.0221 µM and the TGI is 0.062 µM.
For `COc1ccc2nc(-c3cccs3)cc(C(O)CN3CCSCC3)c2c1` (stereo not given), the TGI came out at 74.2 µM.
On the same count and under the same terms, as for `N#C/C(=C\c1ccc(O)c(O)c1)C(N)=S`, the figure is greater than 100 µM.
With `COc1ccc2c(c1)/C(=C\c1c(C)nc3sccn13)C(=O)N2`, the GI50 was less than 0.0402 µM and the TGI was found to be 25.5 µM.
`CC(=O)OCC1OC(OC2C(CSC3OC(COC(C)=O)C(OC(C)=O)C(OC(C)=O)C3OC(C)=O)OC(OC(C)=O)C(OC(C)=O)C2OC(C)=O)C(OC(C)=O)C(OC(C)=O)C1OC(C)=O` (stereo not given) came in with a TGI greater than 100 µM.
With `OC(c1cc(-c2ccccc2)nc2ccc(Cl)cc12)C1CCCCN1` (stereo not given), the GI50 is 1.94 µM and the TGI worked out at 3.74 µM.

The subject of another assay is NCI-H460 lung. As to the kind of experiment: NCI tumour cell line growth inhibition, 48 h.
On to `CCCC(C)c1cc(Cc2cc(Cl)cc(Cl)c2O)c(O)c(Cc2cc(Cl)cc(Cl)c2O)c1` (stereo not given), for which the GI50 is 1.02 µM and the TGI came to 9.34 µM.
The matching figures for `COc1ccc(/C=C2\CCCC3=C2N=C2SC(C)=NN2C3c2ccc(OC)c(OC)c2)cc1OC` (stereo not given): 23.8 µM and greater than 100 µM.
The matching figures for `COc1ccc(-c2nn3c(-c4cc(F)c(Cl)cc4Cl)nnc3s2)cc1`: 22.4 µM and 86.5 µM.
The matching figures for `O=C(NCCO)Nc1ccc(-c2nc(N3CCOCC3)c3cccn3n2)cc1`: 0.19 µM and greater than 100 µM.
On to `O=C(/C=C/c1ccccc1)c1cc(Br)ccc1O`, for which the TGI came out at 33.7 µM.
Take `Cc1ccc(-c2cn3ccnc3c(-c3ccc(Cl)cc3)n2)cc1`: the GI50 is 0.0916 µM and the TGI amounted to 13.1 µM.
As for `CC1(C)C(=NNC(=O)C[N+](C)(C)C)C(C)(C)C1=NNC(=O)C[N+](C)(C)C`, the TGI is greater than 100 µM.
Regarding `CC(C)c1cc(-c2n[nH]c(=O)n2-c2ccc3c(ccn3C)c2)c(O)cc1O`, the GI50 was less than 0.0157 µM and the TGI was 13.9 µM.
`COc1ccc2nc(-c3cccs3)cc(C(O)CN3CCSCC3)c2c1` (stereo not given) had a TGI of 45.1 µM.
The same measure, in the same setting: as for `N#C/C(=C\c1ccc(O)c(O)c1)C(N)=S`, the figure is greater than 100 µM.
Same read-out and setting: as for `COc1ccc2c(c1)/C(=C\c1c(C)nc3sccn13)C(=O)N2`, the figure is greater than 100 µM; as for `CC(=O)OCC1OC(OC2C(CSC3OC(COC(C)=O)C(OC(C)=O)C(OC(C)=O)C3OC(C)=O)OC(OC(C)=O)C(OC(C)=O)C2OC(C)=O)C(OC(C)=O)C(OC(C)=O)C1OC(C)=O` (stereo not given), greater than 100 µM.
Consider `OC(c1cc(-c2ccccc2)nc2ccc(Cl)cc12)C1CCCCN1` (stereo not given), for which the GI50 is 1.89 µM and the TGI is 3.61 µM.

A further assay relates to COLO 205 colon. Briefly: NCI tumour cell line growth inhibition, 48 h.
As for `CCCC(C)c1cc(Cc2cc(Cl)cc(Cl)c2O)c(O)c(Cc2cc(Cl)cc(Cl)c2O)c1` (stereo not given), the GI50 was 1.61 µM and the TGI came out at 5.7 µM.
For `COc1ccc(/C=C2\CCCC3=C2N=C2SC(C)=NN2C3c2ccc(OC)c(OC)c2)cc1OC` (stereo not given) the same measures were 5.24 µM and greater than 100 µM.
For `COc1ccc(-c2nn3c(-c4cc(F)c(Cl)cc4Cl)nnc3s2)cc1` the same measures were 16.5 µM and 36.8 µM.
For `O=C(NCCO)Nc1ccc(-c2nc(N3CCOCC3)c3cccn3n2)cc1` the same measures were 0.117 µM and 9.08 µM.
`O=C(/C=C/c1ccccc1)c1cc(Br)ccc1O` registered a TGI of 33.3 µM.
As for `Cc1ccc(-c2cn3ccnc3c(-c3ccc(Cl)cc3)n2)cc1`, the GI50 was 0.2 µM and the TGI is greater than 29.3 µM.
For the compound `CC1(C)C(=NNC(=O)C[N+](C)(C)C)C(C)(C)C1=NNC(=O)C[N+](C)(C)C`, the TGI was greater than 100 µM.
For the compound `CC(C)c1cc(-c2n[nH]c(=O)n2-c2ccc3c(ccn3C)c2)c(O)cc1O`, the GI50 is 0.0259 µM and the TGI is 0.981 µM.
Turning to `COc1ccc2nc(-c3cccs3)cc(C(O)CN3CCSCC3)c2c1` (stereo not given), the TGI turned out to be 53.7 µM.
On the same count and under the same terms, as for `N#C/C(=C\c1ccc(O)c(O)c1)C(N)=S`, the figure is greater than 100 µM.
Consider `COc1ccc2c(c1)/C(=C\c1c(C)nc3sccn13)C(=O)N2`, for which the GI50 was less than 0.0506 µM.
As to `CC(=O)OCC1OC(OC2C(CSC3OC(COC(C)=O)C(OC(C)=O)C(OC(C)=O)C3OC(C)=O)OC(OC(C)=O)C(OC(C)=O)C2OC(C)=O)C(OC(C)=O)C(OC(C)=O)C1OC(C)=O` (stereo not given), the TGI was greater than 100 µM.

The next assay deals with NCI-H522 lung. As to the kind of experiment: NCI tumour cell line growth inhibition, 48 h.
Regarding `CCCC(C)c1cc(Cc2cc(Cl)cc(Cl)c2O)c(O)c(Cc2cc(Cl)cc(Cl)c2O)c1` (stereo not given), the GI50 is 0.4 µM and the TGI is 6.6 µM.
`COc1ccc(/C=C2\CCCC3=C2N=C2SC(C)=NN2C3c2ccc(OC)c(OC)c2)cc1OC` (stereo not given): the GI50 was 10.8 µM and the TGI came to 57.8 µM.
For `COc1ccc(-c2nn3c(-c4cc(F)c(Cl)cc4Cl)nnc3s2)cc1`, the GI50 was 17 µM and the TGI was 73.1 µM.
For `O=C(NCCO)Nc1ccc(-c2nc(N3CCOCC3)c3cccn3n2)cc1` the same measures were 0.0833 µM and greater than 100 µM.
`O=C(/C=C/c1ccccc1)c1cc(Br)ccc1O` displayed a TGI of 28.4 µM.
Turning to `Cc1ccc(-c2cn3ccnc3c(-c3ccc(Cl)cc3)n2)cc1`, the GI50 was 1.98 µM and the TGI is greater than 8.22 µM.
Consider `CC1(C)C(=NNC(=O)C[N+](C)(C)C)C(C)(C)C1=NNC(=O)C[N+](C)(C)C`, for which the TGI was greater than 100 µM.
Consider `CC(C)c1cc(-c2n[nH]c(=O)n2-c2ccc3c(ccn3C)c2)c(O)cc1O`, for which the GI50 is less than 0.0205 µM and the TGI came out at 17.1 µM.
`COc1ccc2nc(-c3cccs3)cc(C(O)CN3CCSCC3)c2c1` (stereo not given) yielded a TGI of 45.3 µM.
Still for that read-out and setting: as for `N#C/C(=C\c1ccc(O)c(O)c1)C(N)=S`, the figure is 75.9 µM.
In the case of `COc1ccc2c(c1)/C(=C\c1c(C)nc3sccn13)C(=O)N2`, the GI50 was less than 0.01 µM.
Compound `CC(=O)OCC1OC(OC2C(CSC3OC(COC(C)=O)C(OC(C)=O)C(OC(C)=O)C3OC(C)=O)OC(OC(C)=O)C(OC(C)=O)C2OC(C)=O)C(OC(C)=O)C(OC(C)=O)C1OC(C)=O` (stereo not given) yielded a TGI greater than 100 µM.
Regarding `OC(c1cc(-c2ccccc2)nc2ccc(Cl)cc12)C1CCCCN1` (stereo not given), the GI50 was 2.11 µM and the TGI stood at 4.53 µM.

The subject of the next assay is SNB-75 CNS. As to the kind of experiment: NCI tumour cell line growth inhibition, 48 h.
As for `CCCC(C)c1cc(Cc2cc(Cl)cc(Cl)c2O)c(O)c(Cc2cc(Cl)cc(Cl)c2O)c1` (stereo not given), the GI50 is 1.86 µM and the TGI is 7.7 µM.
